The values below are quoted from earlier work in US20260108637A1, “USES OF PSMA-TARGETING AND TSPO-TARGETING COMPOUNDS FOR EVALUATION OF INJURIES IN THE PERIPHERAL NERVOUS SYSTEM” (The Johns Hopkins University, priority 2023, published 2026).

For orientation: Ki means the equilibrium dissociation constant of an inhibitor or competing ligand from its target.

For this data set, the target named is GCPII (Homo sapiens, UniProt Q04609). To be noted: described previously, Chen et al., 2009.
Sequence of GCPII (Q04609 whole entry, species assumed): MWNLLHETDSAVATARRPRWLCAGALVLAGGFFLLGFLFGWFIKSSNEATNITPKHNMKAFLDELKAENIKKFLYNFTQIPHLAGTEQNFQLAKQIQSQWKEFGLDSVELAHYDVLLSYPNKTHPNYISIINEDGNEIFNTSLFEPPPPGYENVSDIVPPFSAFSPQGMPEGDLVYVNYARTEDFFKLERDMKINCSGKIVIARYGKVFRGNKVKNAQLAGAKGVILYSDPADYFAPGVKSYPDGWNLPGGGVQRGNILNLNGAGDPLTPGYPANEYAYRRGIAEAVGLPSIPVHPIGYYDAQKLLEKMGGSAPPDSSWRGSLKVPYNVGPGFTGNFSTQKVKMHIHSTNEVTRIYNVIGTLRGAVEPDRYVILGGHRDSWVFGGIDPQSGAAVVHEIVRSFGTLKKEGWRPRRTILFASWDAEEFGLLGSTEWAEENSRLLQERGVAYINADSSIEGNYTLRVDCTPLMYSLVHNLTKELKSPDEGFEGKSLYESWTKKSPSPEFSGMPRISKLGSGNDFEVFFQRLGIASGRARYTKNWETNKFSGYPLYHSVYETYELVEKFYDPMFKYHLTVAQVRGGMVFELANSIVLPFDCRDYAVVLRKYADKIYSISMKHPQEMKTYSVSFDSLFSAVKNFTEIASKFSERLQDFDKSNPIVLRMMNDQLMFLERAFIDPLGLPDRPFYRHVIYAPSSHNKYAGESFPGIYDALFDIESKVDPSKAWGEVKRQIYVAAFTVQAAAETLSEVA

Consider `CC1(C)C(/C=C/C2=C(Oc3ccc(S(=O)(=O)O)cc3)C(=C/C=C3/N(CCCCS(=O)(=O)O)c4ccc(S(=O)(=O)O)cc4C3(C)C)/CCC2)=[N+](CCCCCC(=O)NCCCCC(NC(=O)CCCCCCC(=O)NCCCC[C@H](NC(=O)N[C@@H](CCC(=O)O)C(=O)O)C(=O)O)C(=O)O)c2ccc(S(=O)(=O)[O-])cc21` (stereo partly shown) [YC27], for which the Ki is 0.37 nM.
